Assay results published in patent US9603821B2, “Inhibitor of τ protein phosphorylation” (NISHIZAKI BIOINFORMATION RESEARCH INSTITUTE, priority 2013, dated 2017).

Experiments:
[1] = target: T1, human recombinant PKCε (Homo sapiens, UniProt Q02156); test: GSK-3β assay under cell-free conditions with PKCε; type: biochemical; conditions: FIG. 7
T1 construct: His; purchased Calbiochem
T1 sequence (Q02156 1-737): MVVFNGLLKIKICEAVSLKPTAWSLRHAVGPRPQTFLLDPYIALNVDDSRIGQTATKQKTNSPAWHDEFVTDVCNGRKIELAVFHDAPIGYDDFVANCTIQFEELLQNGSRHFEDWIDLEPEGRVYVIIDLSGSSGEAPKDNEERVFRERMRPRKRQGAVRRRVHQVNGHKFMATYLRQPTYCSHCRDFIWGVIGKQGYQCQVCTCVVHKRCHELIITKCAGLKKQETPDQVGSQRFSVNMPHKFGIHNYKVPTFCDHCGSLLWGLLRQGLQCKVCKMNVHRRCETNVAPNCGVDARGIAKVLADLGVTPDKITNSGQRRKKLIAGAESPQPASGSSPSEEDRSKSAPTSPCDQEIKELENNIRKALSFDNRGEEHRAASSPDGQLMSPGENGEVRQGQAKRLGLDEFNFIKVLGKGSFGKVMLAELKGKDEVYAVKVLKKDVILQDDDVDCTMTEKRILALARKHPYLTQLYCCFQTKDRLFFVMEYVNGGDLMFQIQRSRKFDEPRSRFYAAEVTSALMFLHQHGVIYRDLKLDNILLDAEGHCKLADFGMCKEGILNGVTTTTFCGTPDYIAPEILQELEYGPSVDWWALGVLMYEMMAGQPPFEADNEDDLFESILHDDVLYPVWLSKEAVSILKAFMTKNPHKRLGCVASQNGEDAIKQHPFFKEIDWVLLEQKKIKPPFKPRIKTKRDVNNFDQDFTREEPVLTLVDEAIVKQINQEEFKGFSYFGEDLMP
Method: Human recombinant GSK-3β (Sigma, St. Louis, Mo., USA) was reacted with His-tagged human recombinant PKCε (Calbiochem, San Diego, Calif., USA) under cell-free conditions in the presence or absence of a given concentration (1-100 μM) of DCP-LA, and with or without addition of GF109203X, in a culture medium containing 20 mM Tris-HCl (pH 7.5), 5 mM Mg-acetate, 12.5 mM glycerol 2-phosphate and 250 μM ATP at 30° C. for 20 min. The protein was separated by SDS-polyacrylamide gel electrophoresis (SDS-PAGE), and transferred on a polyvinylidene difluoride membrane. The blotting membrane was blocked with TBS-T [150 mM NaCl, 0.1% (v/v) Tween20 and 20 mM Tris, pH 7.5] containing 5% (w/v) BSA, and sequentially reacted with anti-serine 9 phosphorylated GSK-3β antibody (Cell Signaling Technology, Inc., Danvers, Mass., USA) or anti-GSK-3β antibody (Cell Signaling Technology, Inc., Danvers, Mass., USA). After washing, the membrane was reacted with horseradish peroxidase conjugated goat anti-mouse IgG antibody or goat anti-rabbit IgG antibody. The immunoreactivity was detected using ECL kit (GE Healthcare, Piscataway, N.J., USA), and visualized using a chemical luminescence detection system (chemiluminescence detection system; GE Healthcare).

[2] = tested on: 5XFAD mouse; test: Water maze test in 5XFAD mouse; type: in vivo; conditions: oral, 30 min before water maze test, daily, DCP-LA 1 mg/kg, galanthamine 2.5 mg/kg, FIG. 6
Text: XFAD transgenic mouse is an animal model of Alzheimer's disease (AD), and contains five mutations of familial Alzheimer's disease (FAD) [Swedish, Florida and London mutations of human amyloid precursor protein (APP), and M146L and L286V mutations of presenilin (PS); Oakley H et al., J. Neurosci. 2006; 26: 10129-10140]. In 5XFAD mouse, Swedish mutation increases production of total amyloid β peptide (Aβ), and the remaining mutations particularly promote production of Aβ1-42.
5XFAD mouse was purchased from The Jackson Laboratory (Bar Harbor, Me., USA), and maintained by crossing with heterozygous transgenic mouse with B6/SJLF1 breeding stock. Non-transgenic wild-type litter-mate was used as a control. All experiments were performed at the age of 5.5-6.5 months.
A circular plastic water tank (diameter 90 cm, depth 36 cm) was used. The inside of the water tank was completely painted in white, and water containing White India ink was filled up to 20 cm from the bottom (22-25° C.). A platform (diameter 11 cm) painted in white was placed in water such that it was 1 cm below the water surface. The water tank was placed in a test room, and several marks seen by the mouse from the water tank were put thereon. During the test, the position of the marks was not changed. A platform was placed a predetermined position from the equal distance from the center and the end of the water tank, namely, center of one quadrant. At one of the randomly selected 3 points, the mouse was released facing the wall of the water tank, and the time necessary for evacuating on the platform (acquisition latency) was measured. When smoothly evacuated, the mouse was left on the platform for 10 seconds. […] The test was performed twice a day, and the second test was started at 30 seconds after the first test. The test was continuously performed for 8 days, and the mean (±SEM) of acquisition latency of continuous 2 days until the mouse reached the platform was calculated. After 7 days, the platform was removed and the time necessary for reaching the place where the platform was located (retention latency) was measured.
DCP-LA and galanthamine were dissolved in polyethylene glycol (PEG). DCP-LA, galanthamine and PEG were administered with an oral gavage needle 30 min before the water maze test.

[3] = tested on: GSK-3β; test: GSK-3β phosphorylation in rat hippocampus section, Western blotting; type: cell-based; conditions: 100 nM, 3 min, FIG. 4
Method: (§1) A rat hippocampus section (male Wister rat, 6-week-old, 400 μm) was incubated in an artificial cerebrospinal fluid (117 mM NaCl, 3.6 mM KCl, 1.2 mM NaH2PO4, 1.2 mM MgCl2, 2.5 mM CaCl2, 25 mM NaHCO3, and 11.5 mM glucose) oxygenated with 95% O2 and 5% CO2, in the presence or absence of DCP-LA (100 nM) at 34° C. for 3 min. In another experiment set, the section was incubated with Aβ1-42 (1 μM) for 3 hr in the presence or absence of DCP-LA (100 nM). After incubation, the section was homogenized by sonication in an ice-cooled cell lysis buffer containing 1% (v/v) protease inhibitor cocktail and 1% (v/v) phosphatase inhibitor cocktail, and the homogenate was centrifuged (3,000 rpm, 5 min, 4° C.). The protein concentration of the supernatant was measured using BCA protein assay kit (Thermo Fisher Scientific, Rockford, Ill., USA). The protein was separated by SDS-polyacrylamide gel electrophoresis (SDS-PAGE), and transferred onto polyvinylidene difluoride membranes. […]
(§2) After washing, the membranes were reacted with horseradish peroxidase-conjugated goat anti-mouse IgG antibody or goat anti-rabbit IgG antibody. The immunoreactivity was detected using ECL kit (GE Healthcare, Piscataway, N.J., USA), and visualized using a chemical luminescence detection system (chemiluminescence detection system; GE Healthcare).

[4] = tested on: Akt; test: Akt activation in rat hippocampus section, Western blotting; type: cell-based; conditions: 100 nM, 3 min, FIG. 3
Method: as §1, §2

[5] = target: T2, Human PTP1B (Homo sapiens, UniProt P18031); test: Assay of PTP1B activity under cell-free conditions (p-NPP dephosphorylation); type: biochemical; conditions: DCP-LA 1-100 μM, p-NPP 10 mM, FIG. 1
T2 construct: made in house; host or cells: E. coli BL21 (DE3)
T2 sequence (P18031 1-435): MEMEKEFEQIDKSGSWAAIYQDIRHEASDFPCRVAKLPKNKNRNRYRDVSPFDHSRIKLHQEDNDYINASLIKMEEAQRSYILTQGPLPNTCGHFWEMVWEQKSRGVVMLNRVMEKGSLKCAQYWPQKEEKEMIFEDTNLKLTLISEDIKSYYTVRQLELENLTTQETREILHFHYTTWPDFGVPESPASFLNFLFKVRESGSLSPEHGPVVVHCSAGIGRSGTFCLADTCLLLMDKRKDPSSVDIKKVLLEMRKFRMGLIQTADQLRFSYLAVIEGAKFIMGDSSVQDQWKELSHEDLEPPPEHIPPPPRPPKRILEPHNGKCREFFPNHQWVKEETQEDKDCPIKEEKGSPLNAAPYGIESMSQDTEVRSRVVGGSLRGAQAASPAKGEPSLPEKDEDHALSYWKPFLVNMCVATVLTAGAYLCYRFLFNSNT
Method: Protein tyrosine phosphatase was measured under cell-free conditions by a method partially modified from the methods described in previous reports (Baba Y, et al. J Am Chem Soc 2003; 125; 9740-9749; Rice R L, et al. Biochemistry 1997; 36: 15965-15974). Human PTP1B was cloned to a pGEX-6P-3 vector having a GST tag at the NH2 terminus, and expressed in competent E. coli BL21 (DE3) suitable for transformation and protein expression. GST fusion PTP1B was affinity-purified using glutathione sepharose 4B (GE Healthcare Bio-Science KK, Tokyo, Japan). It was reacted with p-nitrophenylphosphate (p-NPP) (Sigma, St. Louis, Mo., USA) as a substrate and PTP1B activity was measured. The enzyme was pre-incubated in a reaction medium [50 mM HEPES, 1 mM EDTA, 50 mM NaCl, 1 mM dithiothreitol, pH 7.2] at 37° C. for 30 min in the presence or absence of DCP-LA at a given concentration (1-100 μM) and with or without addition of Na3VO4 which is a PTP1B inhibitor. Then, p-NPP (10 mM) was added to the reaction medium, and the mixture was incubated for 60 min. The reaction was discontinued by the addition of 0.1N NaOH. Dephosphorylated p-NPP, i.e., p-NP, was quantified at an absorbance of 405 nm by using SpectraMax PLUS384 (Molecular Devices, Sunnyvale, Calif., USA).

[6] = tested on: τ protein; test: τ protein phosphorylation induced by Aβ1-42 in rat hippocampus section, Western blotting; type: cell-based; conditions: Aβ1-42 1 μM for 3 hr, DCP-LA 100 nM, FIG. 5
Method: as §1, §2

Compound | suppression of DCP-LA/PKCε-induced Ser9 phosphorylation of GSK-3β ([1]; GF109203X 100 nM in the presence of DCP-LA and PKCε) | acquisition latency [2] | retention latency [2] | Ser9 phosphorylation of GSK-3β relative to total GSK-3β [3] | Akt activation (phosphorylation of Thr308 and Ser473 relative to total Akt) [4] | PTP1B inhibition (phosphatase activity, percentage of control) [5] | Ser9 phosphorylation of GSK-3β by PKCε ([1]; PKCε 1 μg/ml, DCP-LA 1-100 μM) | Ser202/Thr205 phosphorylation of τ protein induced by Aβ1-42 relative to total τ protein [6]
CN(C)CCCn1cc(C2=C(c3c[nH]c4ccccc34)C(=O)NC2=O)c2ccccc21 [GF109203X, reference compound] | phosphorylation is suppressed by GF109203X | – | – | – | – | – | – | –
COc1ccc2c3c1O[C@H]1C[C@@H](O)C=C[C@@]31CCN(C)C2 [galanthamine, reference compound] | – | showed no effect | showed no effect | – | – | – | – | –
CCCCCC1CC1CC1CC1CCCCCCCC(=O)O (stereo not shown) [DCP-LA, 8-[2-(2-Pentyl-cyclopropylmethyl)-cyclopropyl]-octanoic acid] | – | improved extension of both latencies to nearly normal levels | improved extension of both latencies to nearly normal levels | phosphorylates (inactivates) GSK-3β | has an action to activate Akt | inhibits PTP1B in a concentration-dependent manner | phosphorylates (inactivates) GSK-3β in the presence of PKCε | suppresses phosphorylation of τ protein induced by Aβ1-42
